Test results from publication doi:10.1101/2025.10.08.681114v1 (biorxiv, 2025).

Target: CHI3L1 (hCHI3L1, CHI3L1-His, YKL-40) (Homo sapiens, UniProt P36222)
Experiment: microscale thermophoresis dose-response
Format: binding

Chain of CHI3L1 (hCHI3L1, CHI3L1-His, YKL-40) (P36222 22-383): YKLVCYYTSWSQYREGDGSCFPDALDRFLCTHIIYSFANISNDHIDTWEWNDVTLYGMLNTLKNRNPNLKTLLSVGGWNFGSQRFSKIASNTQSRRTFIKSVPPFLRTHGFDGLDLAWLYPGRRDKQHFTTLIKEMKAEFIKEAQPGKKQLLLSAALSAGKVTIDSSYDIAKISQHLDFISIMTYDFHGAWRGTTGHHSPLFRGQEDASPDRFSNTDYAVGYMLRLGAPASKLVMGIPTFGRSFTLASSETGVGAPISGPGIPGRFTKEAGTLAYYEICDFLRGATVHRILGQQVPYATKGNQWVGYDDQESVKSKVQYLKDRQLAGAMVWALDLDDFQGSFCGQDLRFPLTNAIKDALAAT

- Kd: 182 ± 18 µM
Compound: COc1cc2cc(C3CCN(C(=O)c4csc(C)c4)CC3)ncc2cc1C [A9, compound A9]
